# From patent US4883614A, “Phenyl substituted-2,4,6,8-nonatetraenoic acid” (Hoffman-La Roche Inc., priority 1986, dated 1989)
# Where two headings read alike, the source gives them in different places.
# Tests used:
# adjuvant arthritis = test: chronic adjuvant arthritis test in rats (Table I); type: in vivo, male Charles River Lewis rats; conditions: for change in vivo at 95 µmol/kg / change in vivo at 3 µmol/kg: Rattus norvegicus, 552 h; for change in vivo at 3 µmol/kg: oral 3 μMol/Kg
# Procedure: That the compounds of this invention are effective anti-arthritic agents can be seen from the results obtained when these compounds are administered to rats in accordance with the chronic adjuvant arthritis test system disclosed in Billingham and Davies "Handbook of Experimental Pharmacology" (editors J.R. Vane and S.H. Ferreira) Vol. 50/II, pg. 108-144, Springer-Verlag, Berlin, 1979).
# In this procedure, adjuvant arthritis was induced by the subplantar injection on day o of 0.05 ml of adjuvant [a suspension of heat-killed, dessicated Mycobacterium butyricum, 0.5% (w/v), in heavy mineral oil containing 0.2% digitonin] into the right hind paw of male Charles River Lewis rats (120-140g) that were housed individually and given food and water ad lib. paw volumes (both hind paws) were measured immediately after injection of the adjuvant. paw Volumes were also measured, to follow the development of inflammation-induced swelling in the arthritic paws, at intervals of 3 to 7 days by immersion of the paw to the level of the lateral malleolus in a mercury plethysmograph.
# Drugs were administered once a day (starting on the day of adjuvant injection) by […] using Tween 80 (polyoxyethylene sorbitan mono-oleate) at a dose of 0.25 ml/100 g body Weight as the vehicle. Arthritic control rats received daily doses of the vehicle only. On day 23-25, the rats were sacrificed, plasma collected and plasma fibrinogen levels determined (ammonium sulfate turbidimetric method) as described by Exner et al., Amer. J. Clin Path, 71:521-527 (1979). Anti-inflammatory activity of the test drugs were determined by comparing the extent of paw swelling (paw volume on a particular day, i.e. day four to day twenty-five, minus the paw volume on day 0) in drug-treated arthritic rats with the extent of paw swelling in the vehicle-treated arthritic rats. Drug induced decreases in the level of plasma fibrinogen. an acute phase protein that is elevated in the plasma of rats with adjuvant-induced arthritis, were also used to quantitate the anti-inflammatory activity.
# [1] = system: type II collagen arthritis; test: established type II collagen arthritis (Table IV); type: in vivo, male and female Alderley Park Strain 1 rats; conditions: 100 mg.kg^-1 p.o.; male and female rats
# Procedure: In all tests, Compound A and the other retinoids tested concurrently were formulated in arachis oil containing 0.05% propylgallate as anti-oxidant. The dose volumes used were 5 ml.kg^-1 for rats and 10 ml.kg^-1 for mice. Controls were dosed with the appropriate volume of arachis oil vehicle.
# Animals -- Male and female Alderley Park Strain 1 rats.
# Materials -- Type 2 collagen (prepared from bovine nasal septum cartilage), Freunds incomplete adjuvant (Difco).
# Method -- Rats were sensitized to type 2 collagen by injecting them intradermally with 1 ml. of a water in oil emulsion consisting of equal parts of a 1 mg.ml^-1 solution of type 2 collagen in 0.45M NaCl, 0.02M Tris, PH 7.4 and Freunds incomplete adjuvant. Rats developing arthritis were allocated on day 15 post sensitization to a control arachis oil treated group (6 male, 4 female) or to the Compound A treated group (6 male, 5 female). Hind paw volume measurements were taken to ensure even distribution of rats between groups. An overnight collection of urine was made on days 15/16 and dosing commenced on day 16. […] Compound A was dosed at 100 mg.kg^-1 p.o. On days 19/20 a second overnight collection of urine was made. […] On day 20 a second hind paw measurement was taken. Rats were then anaesthetised with sodium pentobarbitone, bled, killed and X-rays taken of hind and forepaws. Rats were dosed on days 16-19 inclusive (4 doses).
# [2] = system: 4 hr carrageenan pleurisy; test: 4 hr carrageenan pleurisy, non-immune inflammation (Table V); type: in vivo, female Alderley Park Strain 1 rats; conditions: 10 days
# Procedure: Animals -- Female Alderley Park Strain 1 rats weighing 170-205 g. at the start of the experiment were used.
# Materials -- Lambda -carrageenan. Prepared as a solution in saline and sterilized by autoclaving.
# Method -- Compound A was administered orally to groups of 8 rats once daily for 10 days at doses of 10, 30 and 100 mg.kg^-1. Control animals received the vehicle. One hour after the last dose the animals were anesthetised with methohexitone (Brietal, 50 mg.kg-1) and 0.2 ml of 1% lambda carrageenan was injected into the pleural cavity. Four hours later the animals were killed with an overdose of pentobarbitone (Sagatal), the pleural exudate was collected and the pleural cavity was washed out with 2 ml of phosphate-buffered saline (PB$-A, Oxoid). The exudate volume was recorded and cell counts were determined using an automatic cell counter (Coulter). Differential cell counts were performed on exudate smears stained with Giemsa stain in order to determine separately the numbers of polymorphonuclear leucocytes (PMN) and mononuclear cells (MN).
# Immediately after recovery of the pleural exudates the tibiae of the animals were excised and their breaking strains were determined.
# The body weights of the animals were recorded daily. Statistical analyses were performed using Student's two-tailed t test.
# In the following table the dose is in mg per kg per day.
# [3] = system: delayed hypersensitivity to methylated bovine serum albumin (MBSA); test: MBSA delayed hypersensitivity test (Table II)
# Procedure: The dose volumes used were 5 ml.kg^-1 for rats and 10 ml.kg^-1 for mice. Controls were dosed with the appropriate volume of arachis oil vehicle.
# Animals -- Male and female MFI mice substrain E33. Initial weight approximately 25 gm.
# Materials -- Methylated bovine serum albumin (MBSA) (Sigma) Freunds complete adjuvant (Difco)
# Method -- Groups of 10 mice were sensitized (day 0) by injecting intradermally at two abdominal. sites 0.05 ml. of a water in oil emulsion of MBSA and Freunds complete adjuvant. On day 9 the mice were challenged by injecting 20 l of a 1% MBSA solution to one paw and 20 l of water into the contralateral paw. Paw volumes were measured 24 hours later by mercury displacement plethysmography. The means percentage increase in paw volume of the MBSA-challenged paw compared with the water challenged paw was calculated for each treatment group. Dosing with vehicle and retinold commenced on day 0 and finished on day 9.
# [4] = system: adjuvant arthritis in the rat; test: developing adjuvant arthritis in the rat (Table III); type: in vivo, AHH/R female rats (PVG derived); conditions: 15 mg.kg^-1 p.o.
# Procedure: Animals--AHH/R Female rats (PVG derived with an initial weight range of 110 to 140 g. were used.
# Materials--Adjuvant for injection. An homogenized suspension of heat killed M. tuberculosis (Human strains C, DT and PN), 5 mg.Ml^-1 in liquid Paraffin was Prepared.
# Method Rats were randomly split into groups of five and adjuvant arthritis was induced by the sub-plantar injection of 0.1 ml of adjuvant susPension into the right hind paw of each rat. Test compounds were administered by intubation each morning commencing the day of adjuvant injection. Two groups of control rats were dosed with the vehicle as was a group of three normal rats included for comparative purposes. Dosing was carried out daily until the end of the test on day 15 except for the first weekend (days 5 & 6). Treatment groups are shown in Table III and include etretinate as standard retinoid.
# Measurements of right hind paw volume were made initially and on days 2 and 4 after and adjufant injection (primary phase). Right and left hind paw volume were then measured on day 8 and every two or three days until the end of the experiment on day 15 (secondary phase). At this time the mobility of each ankle joint and the
# incidence and severity of secondary lesions on nose, ears, forepaws, left hind paw and tail were also assessed in terms of degrees of flexion possible and by using an arbitrary scoring system, respectively.
# The time course curves for the injected paws were integrated from days 0 to 4 to reflect primary swelling and from days 8 to 15 (secondary swelling). The secondary swelling in the non-injected paw was integrated similarly from days 8 to 15. Calculations were carried out using a specific computer program which computed mean ± se for each integrated area. The significance of differences from controls was determined by Student s t test (2 tailed) and percentage reductions from control areas were calculated. Percentage improvements in joint mobility and percentage reductions in lesion score were also determined. In the latter case the Wilcoxon rank sum test (2 tailed) was used to express the difference from the control score using raw data. Mean body weight change in each group was recorded.
compound,measurement,setting,value
CCCCCCCCCOc1ccc(OC)cc1/C=C/C(C)=C/C=C/C(C)=C/C(=O)O,Body Weight Gain,adjuvant arthritis; oral 75 μMol/Kg,+27 g
CCCCCCCCNc1ccccc1/C=C/C(C)=C/C=C/C(C)=C/C(=O)OCC,Body Weight Gain,adjuvant arthritis; oral 75 μMol/Kg,+24 g
CCCCCCCCCOc1cccc(Cl)c1/C=C/C(C)=C/C=C/C(C)=C/C(=O)O,Body Weight Gain,adjuvant arthritis; oral 75 μMol/Kg,+35 g
CC(/C=C/c1ccccc1OCCCCCCCCO)=C\C=C\C(C)=C\C(=O)O,change in vivo at 95 µmol/kg,"adjuvant arthritis; oral 95 μMol/Kg, read-out: % Reduction in Paw Volume On day 23, Left",-49%
same,change in vivo at 95 µmol/kg,"adjuvant arthritis; oral 95 μMol/Kg, read-out: % Reduction in Paw Volume On day 23, Right",-37%
same,Body Weight Gain,adjuvant arthritis; oral 95 μMol/Kg,+27 g
same,Plasma fibrinogen % change (reduction),adjuvant arthritis; oral 95 μMol/Kg,-35%
CCCCCCCCCOc1cccc(F)c1/C=C/C(C)=C/C=C/C(C)=C/C(=O)O,Body Weight Gain,adjuvant arthritis; oral 75 μMol/Kg,+46 g
"CCCCCCCCCOc1ccccc1/C=C/C(C)=C/C=C/C(C)=C/C(=O)O [Compound A, All(E)-9-[2-(nonyloxy)phenyl]-3,7-dimethyl-2,4,6,8-nonatetraenoic acid]",weight during treatment (in words),[1],Both male and female rats lost weight
same,Tibial Breaking Strain (Right + Left) % change,[2]; 10 mg/kg/day p.o.,-3.4%
same,Tibial Breaking Strain (Right + Left) Mean,[2]; 10 mg/kg/day p.o.,6.5 kg
same,Tibial Breaking Strain (Right + Left) % change,[2]; 30 mg/kg/day p.o.,+1.5%
same,Tibial Breaking Strain (Right + Left) Mean,[2]; 30 mg/kg/day p.o.,6.8 kg
same,Tibial Breaking Strain (Right + Left) % change,[2]; 100 mg/kg/day p.o.,-0.3%
same,Tibial Breaking Strain (Right + Left) Mean,[2]; 100 mg/kg/day p.o.,6.7 kg
same,Mean body weight,"[3]; 10 mg.kg^-1 oral, female (F)",-0.2 g
same,Mean body weight,"[3]; 10 mg.kg^-1 oral, male (M)",3.3 g
same,Mean body weight,"[3]; 30 mg.kg^-1 oral, female (F)",0.5 g
same,Mean body weight,"[3]; 30 mg.kg^-1 oral, male (M)",2.8 g
same,Mean body weight,"[3]; 100 mg.kg^-1 oral, female (F)",-0.2 g
same,Mean body weight,"[3]; 100 mg.kg^-1 oral, male (M)",3.3 g
"CCOC(=O)/C=C(C)/C=C/C=C(C)/C=C/c1c(C)cc(OC)c(C)c1C [Etretinate, etretinate]",Joint Mobility (% INC),[4],50%
same,Lesion Score (% RDN),[4],56%
same,"% reduction of paw swelling, Secondary (left)",[4]; days 8-15,30%
same,"% reduction of paw swelling, Secondary (right)",[4]; days 8-15,67%
same,% (cf. arachis oil control),"[3]; 10 mg.kg^-1 oral, 10 doses",46%
same,Mean body weight,"[3]; 10 mg.kg^-1 oral, female (F)",-2.0 g
same,Mean body weight,"[3]; 10 mg.kg^-1 oral, male (M)",-0.8 g
"COc1ccc2c(c1)c(CC(=O)O)c(C)n2C(=O)c1ccc(Cl)cc1 [Indomethacin, reference compound]",change in vivo at 3 µmol/kg,"adjuvant arthritis; read-out: % Reduction in Paw Volume On day 23, Left",-67%
same,change in vivo at 3 µmol/kg,"adjuvant arthritis; read-out: % Reduction in Paw Volume On day 23, Right",-66%
CCCCCCCCCOc1ccccc1/C=C/C(C)=C/C=C/C(C)=C/C(=O)O [drawing 6],Body Weight Gain,adjuvant arthritis; oral 76 μMol/Kg,+27 g
CC1=C(/C=C/C(C)=C/C=C/C(C)=C\C(=O)O)C(C)(C)CCC1 [reference compound],Body Weight Gain,adjuvant arthritis; oral 60 μMol/Kg,-7 g
